Test results from patent US20070202079A1, “Therapeutic compositions and methods useful in modulating protein tyrosine phosphatases” (priority 2006, published 2007).

Tests used:
U251 = U251 cell growth, MTT; assay type: cell-based, human; settings: 100 μg/ml, day 6
Experimental: (§1) NIH3T3 (Yi, et al., Blood 85, 87 (1995)), WM9 (Forsberg, et al., Proc. Nat. Acad Sci. USA 90, 393 (1993)), DU145 (Mickey, et al., Cancer Res. 37, 4049 (1977)), LoVo (Drewinko, et al., Cancer Res. 36, 467 (1976)), HEY (Buick, et al., Cancer Res. 45, 3668 (1985)), U251 (Yoshida, et al., Cancer 50, 410 (1982)), A549 (Giard, et al., J. Natl. Cancer Inst. 51, 1417 (1973)) and SK-N-SH (Helson, et al., Cancer Res. 35, 2594 (1975)) cell lines have been described and were cultured in RPMI 1640 supplemented with 10% fetal calf serum (FCS). For measurement of sodium stibogluconate effects on cell growth in vitro, cells were cultured in the absence (−) or presence (+) of various amounts of sodium stibogluconate for 6 days with viable cells quantified by MTT assays (Mosmann, J. Immunol. Methods 65, 55 (1983)). Percentages of growth inhibition by sodium stibogluconate were calculated (.+−.x%).

A549 = A549 cell growth, MTT; assay type: cell-based, human; settings: 100 μg/ml, day 6
Experimental: as §1

Flag-PRL-2 = target: T1, Flag-PRL-2 (Homo sapiens, UniProt Q12974); assay: immunocomplex PTPase assay, NIH3T3 Flag-PRL-2 transfectants; assay type: cell-based, mouse
T1 construct: expressed in transfected cells; host or cells: NIH3T3 (pBabepuro, puromycin-selected)
Experimental: (§2) Immunocomplex PTPase assays were performed to assess the effects of sodium stibogluconate on intracellular PTPases. Cells were untreated or treated with sodium stibogluconate for 5 minutes, washed with fresh medium and then lysed in cold lysis buffer (50 mM Tris, pH 7.4; 150 mM NaCl; 1% NP40; 2 mM PMSF; 20 μg/ml of Aprotinin). The lysates were incubated with an anti-Flag antibody in immunoprecipitation assays. The immunocomplexes were collected with protein G sepharose beads (Pharmacia) and washed in cold lysis buffer for 4 times. […] C. for 18 hrs. 100 μL of malachite green solution (UBI) was added to each reaction prior to measurement of OD660 to quantify the amounts of free phosphate cleaved by the PTPases from the peptide substrate (Pathak et al., J. Immunol. 167, 3391 (2001)). The remaining 10% contents of individual samples were analyzed by SDS-PAGE/Western blotting to quantify the relative amounts of the phosphatase proteins. […]
(§3) The effects of sodium stibogluconate on intracellular PTPases were assessed using NIH3T3 or WM9 transfectants. […]

[1] = tested on: Stat1 tyrosine phosphorylation; assay: IFN-alpha-induced Stat1 tyrosine phosphorylation, Western blotting; assay type: cell-based, human
Experimental: For induction of Stat1 tyrosine phosphorylation by IFN-alpha in the absence or presence of sodium stibogluconate, cells grown in 10% FCS RPMI 1640 medium at 37° C. were stimulated with IFN-alpha (50 u/ml) for various time points and treated with or without sodium stibogluconate for 5 minutes prior to termination by lysing the cells in cold lysis buffer (1% NP-40; 50 mM Tris, pH 7.4; 100 mM NaCl; 1 mM EDTA, 10% glycerol, 10 mM sodium molybdic acid and 4 mM AEBSF).
Cell lysates were prepared by lysing cells in cold lysis buffer for 30 min and cleared by centrifuging at 14,000 rpm at 4° C. for 15 min. For SDS-PAGE, cell lysates were mixed with equal volume of 2×SDS-PAGE sample buffer, heated at 90° C. for 5 min and separated in 10% SDS-PAGE gels. Cellular proteins in SDS-PAGE gels were transferred to nitrocellulose membrane (Schleicher & Schuell, Keene, N.H.), blocked in 5% milk, probed with antibodies and detected by using an enhanced chemiluminescence kit (ECL, Amersham, Arlington Heights, Ill.).

Flag-PRL-3 = target: T2, Flag-PRL-3 (Homo sapiens, UniProt O75365); assay: immunocomplex PTPase assay, NIH3T3 Flag-PRL-3 transfectants; assay type: cell-based, mouse; settings: cells treated 5 min
T2 construct: expressed in transfected cells; host or cells: NIH3T3 (pBabepuro, puromycin-selected)
Experimental: as §2, §3

SK-N-SH = SK-N-SH cell growth, MTT; assay type: cell-based, human; settings: 100 μg/ml, day 6
Experimental: as §1

Jurkat cells = assay: IFN-gamma secretion by Jurkat cells, ELISA; assay type: cell-based, human; settings: 16 hours
Experimental: Jurkat cells were cultured in the absence or presence of various amounts of SSG for 16 hours. The cells and culture medium supernatants were separated by centrifugation (1,000 g, 10 min). The amounts of IFN-gamma in the culture medium supernatants were quantified using an ELISA kit (R.D. system, Minneapolis, Minn.) following the manufacturer's protocol.

T1 sequence (Q12974 whole entry): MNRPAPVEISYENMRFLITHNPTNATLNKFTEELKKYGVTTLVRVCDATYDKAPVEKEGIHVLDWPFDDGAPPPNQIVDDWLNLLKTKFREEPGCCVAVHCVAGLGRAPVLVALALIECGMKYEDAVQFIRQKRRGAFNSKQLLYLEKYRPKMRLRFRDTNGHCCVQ
T2 sequence (O75365 whole entry): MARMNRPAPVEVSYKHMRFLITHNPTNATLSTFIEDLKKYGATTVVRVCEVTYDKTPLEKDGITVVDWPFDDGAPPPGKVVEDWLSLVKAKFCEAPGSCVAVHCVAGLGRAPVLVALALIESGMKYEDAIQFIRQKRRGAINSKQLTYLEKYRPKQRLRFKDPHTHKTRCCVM

O.O.O.O.O.O.O.O.O.O=C([O-])[C@@H]1[O][Sb]2([O-])([O][Sb]34([OH])[O][C@H]([C@H](O)CO)[C@H]([O]3)[C@H](C(=O)[O-])[O]4)[O][C@H]([C@H](O)CO)[C@@H]1[O]2.[Na+].[Na+].[Na+] [sodium stibogluconate]
cell killing of U251 (U251): near-complete cell killing | cell killing of A549 (A549): near-complete cell killing | time required for full removal of effect on intracellular PRL-2 (Flag-PRL-2; brief treatment): at least 24 hours | PTPase activity of immunocomplexes from treated Flag-PRL-2 transfectants (Flag-PRL-2; cells treated 5 min): lack of PTPase activity | IFN-alpha-induced Stat1 tyrosine phosphorylation ([1]; DR cells, 10 μg/ml, 30 min post-stimulation): approximately two folds greater than control | Stat1 tyrosine phosphorylation by drug itself ([1]; DR cells, absence of IFN-alpha): failed to induce Stat1 tyrosine phosphorylation | IFN-alpha-induced Stat1 tyrosine phosphorylation ([1]; DU145, 5 hours post-stimulation): Enhanced Stat1 tyrosine phosphorylation | IFN-alpha-induced Stat1 tyrosine phosphorylation ([1]; WM9, 5 hours post-stimulation): Enhanced Stat1 tyrosine phosphorylation | IFN-alpha-induced Stat1 tyrosine phosphorylation ([1]; WM35): failed to enhance | IFN-alpha-induced Stat1 tyrosine phosphorylation ([1]; WiT49-N1): failed to enhance | PTPase activity of immunocomplexes from treated Flag-PRL-3 transfectants (Flag-PRL-3): lack of PTPase activity | cell killing of SK-N-SH (SK-N-SH): near-complete cell killing | IFN-gamma secretion (Jurkat cells): increased amounts of IFN-gamma
